Reference: US20070270413A1, “Mirtazapine for the treatment of neuropathic pain” (N.V. Organon, priority 2006, published 2007)

Tests used:
[1] = system: mechanical allodynia induced by ligation of the L5 spinal nerve; experiment: Chung neuropathic model: mechanical allodynia, paw withdrawal threshold to von Frey filaments; assay type: in vivo, rat; conditions: 10 and 30 μmol/kg, 40 min after administration, P<0.05 vs vehicle (Mann Whitney)
[2] = system: mechanical allodynia induced by ligation of the L5 spinal nerve; experiment: as above; assay type: in vivo, rat
Text: The Chung Neuropathic Model is an animal model of neuropathic pain. Animals with tight ligation of the L5 spinal nerve develop hyperalgesia and allodynia that can be measured using standard behavioural paradigms. Chung surgery: animals were anaesthetized with isoflurane administered in oxygen. Under sterile conditions, a longitudinal incision (about 5 mm lateral from the midline) was made at the lower lumbar-sacral level, exposing the paraspinal muscles on the left. The paraspinal muscles were then isolated and removed from the L4 spinous process to the sacrum using small blunt scissors. This opened up the space ventrolateral to the articular processes, dorsal to the L6 transverse process, and medial to the ileum. Small roungers were used to remove the L6 transverse process as completely as possible. The L5 spinal nerve was then isolated and tightly ligated. Upon completion of the operation, haemostasis was confirmed and the wound closed in layers using silk sutures and metal clips. Anaesthesia was then discontinued. Animals were kept in a cage with warm bedding until they had completely recovered from anaesthesia. The rats' withdrawal threshold to a mechanical stimulus (calibrated von Frey filaments) was measured (baseline reading). Rats were placed on an elevated (˜40 cm) mesh floor in Perspex boxes and filaments of increasing force (2.6-167 mN) were applied to the plantar surface of the paw using an up and down method (Chaplan et al., 1994). The paw was touched with one of a series of 8 von Frey hairs with logarithmically incremental stiffness. The von Frey hair was presented perpendicular to the plantar surface with sufficient force to cause buckling against the paw, and held for approximately 1-3 seconds. A positive response was noted if the paw was sharply withdrawn. A cut-off of 15 g was selected as the upper limit for testing, since stiffer hairs tend to raise the entire limb rather than buckling, substantially changing the nature of the stimulus. […] Data were expressed as mean±s.e.m. and compared between groups using the Kruskal-Wallis one-way analysis of variance, a non-parametric statistical test. Each of the treatment groups were then compared against the vehicle group, using the non-parametric Dunn's test. The time of maximum effect (Tmax) was calculated.

[3] = Side effects observed after s.c. dosing in the Chung neuropathic model
Method: Following baseline measurements each animal was anaesthetised and the L5 spinal nerve tightly ligated. The animals were allowed to recover from the surgery for a period of at least five days. On the day of drug administration, the paw withdrawal thresholds were re-measured (0 min). […] Readings were then made at regular intervals after compound injection.

Compound: CN1CCN2c3ncccc3Cc3ccccc3C2C1 (racemic) [Racemic mirtazapine, mirtazapine]
- Withdrawal threshold [1]: up to 4 g
- Effect on withdrawal threshold ([2]; 10 and 30 μmol/kg, 40 min after administration, not dose-dependent): small but significant effect

Compound: CN1CCN2c3ncccc3Cc3ccccc3[C@H]2C1 [S(+)-mirtazapine]
- Injection site finding ([3]; 120 μmol/kg s.c.): necrosis at site of injection
- Reaction on injection (s.c.) ([3]; 120 μmol/kg s.c.): vocalisation/struggle on injection
- Behaviour when returned to holding cages after testing ([3]; 60 and 120 μmol/kg group): hyperactive/excitable behaviour
- Tmax (time of maximum effect) ([2]; 0.3 μmol/kg s.c.): 1 h
- Tmax (time of maximum effect) ([2]; 3 μmol/kg s.c.): 1 h
- Tmax (time of maximum effect) ([2]; 30 μmol/kg s.c., Table 1): 1 h
- Tmax (time of maximum effect) ([2]; 60 μmol/kg s.c.): 1 h
- Reversal of mechanical allodynia ([2]; 120 μmol/kg s.c.): 53 % of the baseline
- Tmax (time of maximum effect) ([2]; 120 μmol/kg s.c.): 1 h
- Anti-allodynic activity ([2]; 60 and 120 μmol/kg s.c.): Anti-allodynic activity
- Effect on mechanical allodynia ([2]; subcutaneous administration, maleate salt): significantly attenuated

Compound: R-mirtazapine [reference compound]
- Tmax (time of maximum effect) ([2]; 10 μmol/kg s.c., Table 2): 0.5 h
- Tmax (time of maximum effect) ([2]; 30 μmol/kg s.c., Table 2): 0.5 h
- Tmax (time of maximum effect) ([2]; 100 μmol/kg s.c., Table 2): 0.5 h
- Effect on mechanical allodynia ([2]; 10-100 μmol/kg s.c., free base): no effect
- Anti-allodynic activity ([2]; doses up to 100 μmol/kg s.c.): no effect
